Data from patent US20040209897A1 (Pharmacia Corporation, priority 2002, published 2004).

Key:
[1] = system: SCW-induced arthritis; assay: Streptococcus cell wall (SCW)-induced arthritis, paw volume / paw swelling; assay type: in vivo; details: rats, FIG. 4, A at 20, 60, 200 mpk/day, B at 60, 120, 240 mpk/day
[2] = system: streptococcal cell wall (SCW)-induced arthritis; assay: Chronic streptococcal cell wall (SCW)-induced arthritis in Lewis rats, paw volume; assay type: in vivo; details: female Lewis rats, daily dosing from day 10, paw volume measured 11 days after start of administration, A at 200, 60, 20 mpk/day, B at 240, 120, 60 mpk/day, FIG. 3
Source text: The use of Lewis rats with chronic streptococcal cell wall (SCW)-induced arthritis as models for testing potentially therapeutic compounds has been described by Richards, P. J., et al., Rhermatology (Oxford), 40(9):978-987 (2001), and Melay, L. M. et al, Bioorg. Med. Chem., 9(2):537-554 (2001), among others. In the present test, female Lewis rats were divided into eight groups. One group served as the “normal” control and received no arthritis inducement. Chronic streptococcal cell wall (SCW)-induced arthritis was induced in the remaining seven groups. One of the severn groups in which arthritis was induced served as a “vehicle” control and received dosage only of vehicle at the same intervals as those rats receiving the test compounds. Three additional groups of rats received the vehicle plus 2-{2-[(E)-2-phenylethenyl]pyridin-4-yl}-1,5,6,7-tetrahydro-4H-pyrrolo[3,2-c]pyridin-4-one (Compound “A”) in daily dosages. All rats were started on the test at day 0. […]
To measure the effectiveness of the compounds for the treatment of SCW-induced arthritis, rat paw volume was measured at eleven (11) days from the initiation of administration of the test compounds. […]

[3] = system: MK-2; details: cited from earlier work
[4] = system: endotoxin-induced shock; details: murine model of endotoxin-induced shock; cited from earlier work
[5] = system: collagen-induced arthritis; details: mouse; cited from earlier work
[6] = system: adjuvant arthritis; details: rat; cited from earlier work
[7] = system: granulomas; details: laboratory rats; cited from earlier work

O=C(O)C(F)(F)F.O=C1NCCc2[nH]c(-c3ccnc(-c4ccccc4F)c3)cc21 [B, 2-[2-(2-fluorophenyl)pyridin-4-yl]-1,5,6,7-tetrahydro-4H-pyrrolo[3,2-c]pyridin-4-one trifluoroacetate]
percent inhibition in paw swelling as a function of the dosage rate [1]: typical dose-response behavior | average paw volume (increase versus vehicle controls) [2]: significantly lower increases in paw volume

O=C1NCCc2[nH]c(-c3ccnc(/C=C/c4ccccc4)c3)cc21 [Compound A, 2-{2-[(E)-2-phenylethenyl]pyridin-4-yl}-1,5,6,7-tetrahydro-4H-pyrrolo[3,2-c]pyridin-4-one]
percent inhibition in paw swelling as a function of the dosage rate [1]: typical dose-response behavior | average paw volume (increase versus vehicle controls) [2]: significantly lower increases in paw volume

C[S+]([O-])c1ccc(-c2nc(-c3ccncc3)c(-c3ccc(F)cc3)[nH]2)cc1 (stereo not drawn) [SB203580]
inhibition of activation of MK-2 [3]: inhibit activation | mortality [4]: reduce mortality | development of collagen-induced arthritis [5]: inhibit the development | development of adjuvant arthritis [6]: inhibit the development

Nc1nccc(-c2c(-c3ccc(F)cc3)ncn2C2CCNCC2)n1 [SB 220025]
vascular density of granulomas [7]: significant dose-dependent decrease
